Earlier results in patent US6586413B2, “Methods and compositions for reducing ischemic injury of the heart by administering adenosine receptor agonists and antagonists” (The United States of America as represented by the …, priority 1999, dated 2003).

Tested on: Rat Brain A1 and A2-Receptors
Settings: cited from earlier work; for A1/A2 ratio: rat brain, reference 31; for A1/A2 ratio, value in square brackets: second value printed in brackets below, brackets not explained

| Structure (SMILES) | A1/A2 ratio | A1/A2 ratio, value in square brackets |
| --- | --- | --- |
| COc1cc(C=Cc2nc3c(c(=O)n(C)c(=O)n3C)n2C)cc(OC)c1OCCCCN [compound 38] | 36 | – |
| Cn1c(=O)c2c(nc(C=Cc3cccc(N)c3)n2C)n(C)c1=O [22b] | 30 | – |
| COc1cc(C=Cc2nc3c(c(=O)n(C)c(=O)n3C)n2C)cc(OC)c1OCC=CCNC(=O)OC(C)(C)C [compound 42] | >40 | – |
| Cn1c(=O)c2c(nc(C=Cc3cccc(NC(=O)CCC(=O)O)c3)n2C)n(C)c1=O [compound 24] | 250 | – |
| COc1cc(C=Cc2nc3c([nH]2)c(=O)n(C)c(=O)n3C)cc(OC)c1 [33a] | 25 | – |
| COc1cc(C=Cc2nc3c(c(=O)n(C)c(=O)n3C)n2C)cc(OC)c1OCC=CCNC(C)=O [compound 41] | >50 | – |
| Cn1c(=O)c2c(nc(C=Cc3cccc(N(C(=O)OC(C)(C)C)C(=O)OC(C)(C)C)c3)n2C)n(C)c1=O [compound 26] | 15 | – |
| COc1cc(C=Cc2nc3c(c(=O)n(C)c(=O)n3C)n2C)cc(OC)c1OC [44b] | 70 | [>5600] |
| COc1cc(C=Cc2nc3c(c(=O)n(C)c(=O)n3C)n2C)cc(OC)c1OCCCCNC(=O)OC(C)(C)C [compound 39] | 42 | – |
| COc1cc(C=Cc2nc3c(c(=O)n(C)c(=O)n3C)n2C)cc(OC)c1OCC=CCN [compound 40] | 28 | – |
| COc1cc(C=Cc2nc3c(c(=O)n(C)c(=O)n3C)n2C)cc(OC)c1OC(C)=O [compound 36] | 93 | – |
| COc1ccccc1C=Cc1nc2c(c(=O)n(C)c(=O)n2C)n1C [17b] | 18 | – |
| COc1cc(C=Cc2nc3c(c(=O)n(C)c(=O)n3C)n2C)cc(OC)c1O [compound 35] | 19 | – |
| Cn1c(=O)c2c(nc(C=Cc3cc(F)cc(F)c3)n2C)n(C)c1=O [34b] | 230 | – |
| CCCn1c(=O)c2c(nc(C=Cc3cc(OC)cc(OC)c3)n2C)n(CCC)c1=O [53b] | 110 | – |
| CC(=O)Nc1cccc(C=Cc2nc3c(c(=O)n(C)c(=O)n3C)n2C)c1 [compound 23] | 240 | – |
| COc1cc(C=Cc2nc3c(c(=O)n(C)c(=O)n3C)n2C)cc(OC)c1 [33b] | >200 | – |
| COc1ccc(C=Cc2nc3c(c(=O)n(C)c(=O)n3C)n2C)c(OC)c1OC [43b] | 34 | – |
| Cn1c(=O)c2c(nc(C=Cc3cccc([N+](=O)[O-])c3)n2C)n(C)c1=O [21b] | 11 | – |
| COc1ccc(C=Cc2nc3c(c(=O)n(C)c(=O)n3C)n2C)cc1 [29b] | 44 | – |
| Cn1c(=O)c2c(nc(C=Cc3cccc(NC(=O)OC(C)(C)C)c3)n2C)n(C)c1=O [compound 25] | 30 | – |
| COc1ccc(C=Cc2nc3c(c(=O)n(C)c(=O)n3C)n2C)cc1OC [32b] | 70 | – |
| C=CCn1c(=O)c2c(nc(C=Cc3cc(OC)c(OC)c(OC)c3)n2C)n(CC=C)c1=O [compound 46] | 13 | [>6700] |
| Cn1c(=O)c2c(nc(/C=C/c3cccc(C(F)(F)F)c3)n2C)n(C)c1=O [20b] | 25 | – |
| Cn1c(=O)c2c(nc(C=Cc3cccc(F)c3)n2C)n(C)c1=O [27b] | 190 | – |
| COc1cccc(C=Cc2nc3c(c(=O)n(C)c(=O)n3C)n2C)c1 [19b] | 64 | – |
